The target of this test is T1, IRAK-4 (Homo sapiens, UniProt Q9NWZ3).
T1 sequence (Q9NWZ3 1-460): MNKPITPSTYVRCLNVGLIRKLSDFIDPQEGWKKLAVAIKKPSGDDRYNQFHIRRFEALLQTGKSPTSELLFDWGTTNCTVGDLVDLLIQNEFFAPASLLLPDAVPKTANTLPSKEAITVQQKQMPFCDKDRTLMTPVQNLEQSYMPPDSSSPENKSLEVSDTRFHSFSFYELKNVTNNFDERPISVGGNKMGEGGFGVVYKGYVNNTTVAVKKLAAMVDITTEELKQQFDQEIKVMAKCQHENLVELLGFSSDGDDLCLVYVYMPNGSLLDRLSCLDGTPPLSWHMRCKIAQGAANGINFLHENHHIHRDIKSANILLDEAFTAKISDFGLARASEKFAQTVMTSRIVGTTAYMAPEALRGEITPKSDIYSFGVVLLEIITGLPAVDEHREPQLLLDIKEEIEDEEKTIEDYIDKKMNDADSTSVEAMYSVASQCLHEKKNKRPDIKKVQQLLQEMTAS
Briefly: IRAK-4 ELISA, PBMC degradation. The class given is cell-based. The arrangement: endogenous in cells; host or cells: PBMC. As to conditions: treated overnight. The method, boiled down: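 Readout: IRAK-4 protein level in cell lysate, sandwich ELISA. Cells: OCI-Ly10 at 1×10^6/ml or PBMC at 2×10^6/ml, compound added same day, overnight incubation.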

Take `CC(C)Oc1cc2nn([C@H]3CC[C@H](NCC4(F)CN(c5ccc6c(c5)C(=O)N(C5CCC(=O)NC5=O)C6=O)C4)CC3)cc2cc1NC(=O)c1cnn2cccnc12` (stereo partly drawn) [Example 348]: the DC50 was less than 1 nM, the greatest degradation seen (Dmax) was no less than 90% and the “PBMC DC90” value is “A (A represents a DC90 value <10.0 nM)”.

Consider `CN(CC1CCN(c2ccc3c(c2)C(=O)N(C2CCC(=O)NC2=O)C3=O)CC1)[C@H]1CC[C@H](n2cc3cc(NC(=O)c4cnn5cccnc45)c(OCC4CC4)cc3n2)CC1` (stereo partly drawn) [Example 349], for which the half-maximal degradation concentration (DC50) was less than 1 nM, the Dmax was 80 to 90% and the “PBMC DC90” value was “A (A represents a DC90 value <10.0 nM)”.

Regarding `CN(CC1(F)CN(c2ccc3c(c2)C(=O)N(C2CCC(=O)NC2=O)C3=O)C1)[C@H]1CC[C@H](n2cc3cc(NC(=O)c4cnn5cccnc45)c(OCC4CC4)cc3n2)CC1` (stereo partly drawn) [Example 350], the 50% degradation concentration (DC50) was in the range of 1 to 5 nM; the Dmax was 70 to 80%; the “PBMC DC90” value was “B (B represents a DC90 value ≥10.0 nM and <25.0 nM)”.

`O=C1CCC(N2C(=O)c3ccc(N4CC(F)(CN[C@H]5CC[C@H](n6cc7cc(NC(=O)c8cnn9cccnc89)c(OCC8CC8)cc7n6)CC5)C4)cc3C2=O)C(=O)N1` (stereo partly drawn) [Example 351]: the DC50 is less than 1 nM, the Dmax was 80 to 90% and the “PBMC DC90” value is reported as “A (A represents a DC90 value <10.0 nM)”.

For the compound `CN(CC1(F)CCN(c2ccc3c(c2)C(=O)N(C2CCC(=O)NC2=O)C3=O)CC1)[C@H]1CC[C@H](n2cc3cc(NC(=O)c4cnn5cccnc45)c(OCC4CC4)cc3n2)CC1` (stereo partly drawn) [Example 352], the DC50 was 1 to 5 nM; the Dmax is 80 to 90%; the “PBMC DC90” value was “B (B represents a DC90 value ≥10.0 nM and <25.0 nM)”.

Regarding `CN(C1CCC(n2cc3cc(NC(=O)c4cnn5cccnc45)c(OCC4CC4)cc3n2)CC1)C1CCN(c2ccc3c(c2)C(=O)N(C2CCC(=O)NC2=O)C3)CC1` (stereo not drawn) [Example 354], the DC50 is less than 1 nM, the Dmax fell in the range of 70 to 80% and the “PBMC DC90” value was “D (D represents a DC90 value ≥50 nM)”.

Consider `CN(C1CCC(n2cc3cc(NC(=O)c4cnn5cccnc45)c(OCC4CC4)cc3n2)CC1)C1CN(c2ccc3c(c2)C(=O)N(C2CCC(=O)NC2=O)C3)C1` (stereo not drawn) [Example 355], for which the DC50 fell in the range of 1 to 5 nM, the Dmax is 80 to 90% and the “PBMC DC90” value is recorded as “D (D represents a DC90 value ≥50 nM)”.

In the case of `CN(CC1(C)CCN(c2ccc3c(c2)C(=O)N(C2CCC(=O)NC2=O)C3=O)CC1)C1CCC(n2cc3cc(NC(=O)c4cnn5cccnc45)c(OCC4CC4)cc3n2)CC1` (stereo not drawn) [Example 356], the DC50 lay within 1 to 5 nM, the Dmax was no less than 90% and the “PBMC DC90” value is “A (A represents a DC90 value <10.0 nM)”.

As for `CCN(C1CCN(c2ccc3c(c2)C(=O)N([C@@H]2CCC(=O)NC2=O)C3=O)CC1)[C@H]1C[C@H](n2cc3cc(NC(=O)c4cnn5cccnc45)c(OC(C)C)cc3n2)C1` [Example 377, N-(2-((1r,3r)-3-((1-(2-(2,6-dioxopiperidin-3-yl)-1,3-dioxoisoindolin-5-yl)piperidin-4-yl)(ethyl)amino)cyclobutyl)-6-isopropoxy-2H-indazol-5-yl)pyrazolo[1,5-a]pyrimidine-3-carboxamide], the DC50 is 1 to 5 nM; the “PBMC DC90” value was “B (B represents a DC90 value ≥10.0 nM and <25.0 nM)”; the “PBMC Dmax” value is “A (A represents a Dmax value ≥90)”.

`Cn1c(=O)n(C2CCC(=O)NC2=O)c2cccc(N3CC(CN4CCC(n5cc6cc(NC(=O)c7cnn8cccnc78)c(C7CC7)cc6n5)CC4)C3)c21` (stereo not drawn) [Example 383]: the DC50 is less than 1 nM, the Dmax is no less than 90% and the “PBMC DC90” value is given as “A (A represents a DC90 value <10.0 nM)”.

For the compound `CC(C)Oc1cc2c(cc1NC(=O)c1cnn3cccnc13)CN(C1CCN(CC3(F)CN(c4cccc5c4n(C)c(=O)n5C4CCC(=O)NC4=O)C3)CC1)C2=O` (stereo not drawn) [Example 385], the DC50 was less than 1 nM, the Dmax was no less than 90% and the “PBMC DC90” value is listed as “A (A represents a DC90 value <10.0 nM)”.

With `CC(C)Oc1cc2nn(C3CCN(CC4(F)CN(c5cccc6c5n(C)c(=O)n6C5CCC(=O)NC5=O)C4)CC3)cc2cc1NC(=O)c1cnn2cccnc12` (stereo not drawn) [Example 386], the DC50 was less than 1 nM, the maximal degradation (Dmax) was no less than 90% and the “PBMC DC90” value is listed as “A (A represents a DC90 value <10.0 nM)”.

For `Cn1c(=O)n(C2CCC(=O)NC2=O)c2cccc(N3CC(F)(CN4CCC(n5cc6cc(NC(=O)c7cnn8cccnc78)c(OCC7CC7)cc6n5)CC4)C3)c21` (stereo not drawn) [Example 387], the DC50 was less than 1 nM, the Dmax was no less than 90% and the “PBMC DC90” value was “A (A represents a DC90 value <10.0 nM)”.

`CCN(C1CN(c2cccc3c2n(C)c(=O)n3C2CCC(=O)NC2=O)C1)[C@H]1CC[C@H](n2cc3cc(NC(=O)c4cnn5cccnc45)c(OC(C)C)cc3n2)CC1` (stereo partly drawn) [Example 388]: the 50% degradation concentration (DC50) is less than 1 nM, the Dmax was no less than 90% and the “PBMC DC90” value was “A (A represents a DC90 value <10.0 nM)”.

Take `Cn1c(=O)n(C2CCC(=O)NC2=O)c2cccc(N3CCC(CN4CCC(n5cc6cc(NC(=O)c7cnn8cccnc78)c(OCC7CC7)cc6n5)CC4)CC3)c21` (stereo not drawn) [Example 390, N-(6-(cyclopropylmethoxy)-2-(1-((1-(1-(2,6-dioxopiperidin-3-yl)-3-methyl-2-oxo-2,3-dihydro-1H-benzo[d]imidazol-4-yl)piperidin-4-yl)methyl)piperidin-4-yl)-2H-indazol-5-yl)pyrazolo[1,5-a]pyrimidine-3-carboxamide]: the DC50 was less than 1 nM, the Dmax was no less than 90% and the “PBMC DC90” value is on record as “A (A represents a DC90 value <10.0 nM)”.

`COc1cc(N2CC(CN3CCC(N4Cc5cc(NC(=O)c6cnn7cccnc67)c(OC(C)C)nc5C4=O)CC3)C2)cc2c1C(=O)N(C1CCC(=O)NC1=O)C2=O` (stereo not drawn) [Example 397, N-(6-(1-((1-(2-(2,6-dioxopiperidin-3-yl)-7-methoxy-1,3-dioxoisoindolin-5-yl)azetidin-3-yl)methyl)piperidin-4-yl)-2-isopropoxy-7-oxo-6,7-dihydro-5H-pyrrolo[3,4-b]ipyridin-3-yl)pyrazolo [1,5-a]pyrimidine-3-carboxamide]: the DC50 is less than 1 nM, the “PBMC DC90” value was “A (A represents a DC90 value <10.0 nM)” and the “PBMC Dmax” value is recorded as “A (A represents a Dmax value ≥90)”.

Turning to `CC(C)Oc1nc2c(cc1NC(=O)c1cnn3cccnc13)CN(C1CCN(CCc3ccc4c(c3)CN(C3CCC(=O)NC3=O)C4=O)CC1)C2=O` (stereo not drawn) [Example 399], the half-maximal degradation concentration (DC50) was 1 to 5 nM; the Dmax is no less than 90%; the “PBMC DC90” value is “B (B represents a DC90 value ≥10.0 nM and <25.0 nM)”.

For the compound `CC(C)Oc1nc2c(cc1NC(=O)c1cnn3cccnc13)CN(C1CCN(CC3CN(c4ccc5c(c4)CN(C4CCC(=O)NC4=O)C5=O)C3)CC1)C2=O` (stereo not drawn) [Example 401], the DC50 fell in the range of 1 to 5 nM; the greatest degradation seen (Dmax) is no less than 90%; the “PBMC DC90” value is “B (B represents a DC90 value ≥10.0 nM and <25.0 nM)”.

As for `COc1cc(N2CC(CN3CCC(N4Cc5cc(NC(=O)c6cnn7cccnc67)c(OC(C)C)nc5C4=O)CC3)C2)cc2c1C(=O)N(C1CCC(=O)NC1=O)C2` (stereo not drawn) [Example 403], the DC50 is 1 to 5 nM; the Dmax is no less than 90%; the “PBMC DC90” value is “C (C represents a DC90 value ≥25.0 nM and <50 nM)”.

In the case of `O=C1CCC(N2Cc3cc(N4CC(N5CCC(N6Cc7cc(NC(=O)c8cnn9cccnc89)c(N8CCOCC8)nc7C6=O)CC5)C4)ccc3C2=O)C(=O)N1` (stereo not drawn) [Example 404, N-[6-[1-[1-[2-(2,6-dioxo-3-piperidyl)-1-oxo-isoindolin-5-yl]azetidin-3-yl]-4-piperidyl]-2-morpholino-7-oxo-5H-pyrrolo[3,4-b]pyridin-3-yl]pyrazolo[1,5-a]pyrimidine-3-carboxamide], the DC50 is no less than 10 nM, the Dmax is 80 to 90% and the “PBMC DC90” value is “D (D represents a DC90 value ≥50 nM)”.

As for `O=C1CCC(N2C(=O)c3ccc(N4CC(N5CCC(N6Cc7cc(NC(=O)c8cnn9cccnc89)c(N8CCOCC8)nc7C6=O)CC5)C4)cc3C2=O)C(=O)N1` (stereo not drawn) [Example 407], the DC50 was less than 1 nM, the Dmax is no less than 90% and the “PBMC DC90” value is reported as “A (A represents a DC90 value <10.0 nM)”.

Turning to `O=C1CCC(N2C(=O)c3ccc(N4CC(F)(CN5CCC(n6cc7cc(NC(=O)c8cnn9cccnc89)c(C(F)F)cc7n6)CC5)C4)cc3C2=O)C(=O)N1` (stereo not drawn) [Example 408, N-[6-(difluoromethyl)-2-[1-[[1-[2-(2,6-dioxo-3-piperidyl)-1,3-dioxo-isoindolin-5-yl]-3-fluoro-azetidin-3-yl]methyl]-4-piperidyl]indazol-5-yl]pyrazolo[1,5-a]pyrimidine-3-carboxamide], the DC50 was less than 1 nM, the Dmax is no less than 90% and the “PBMC DC90” value was “A (A represents a DC90 value <10.0 nM)”.

Take `O=C1CCC(N2C(=O)c3ccc(N4CC(F)(CN5CCC(n6cc7cc(NC(=O)c8cnn9ccc(N%10CCOCC%10)nc89)c(C(F)F)cc7n6)CC5)C4)cc3C2=O)C(=O)N1` (stereo not drawn) [Example 409]: the DC50 fell in the range of 1 to 5 nM; the Dmax was no less than 90%; the “PBMC DC90” value was “B (B represents a DC90 value ≥10.0 nM and <25.0 nM)”.

On to `O=C1CCC(N2C(=O)c3ccc(N4CC(F)(CN5CCC(n6cc7cc(NC(=O)c8cnn9ccc(N%10C[C@H]%11C[C@@H]%10CO%11)nc89)c(C(F)F)cc7n6)CC5)C4)cc3C2=O)C(=O)N1` (stereo partly drawn) [Example 410], for which the DC50 was 5 to 10 nM, the Dmax was in the range of 80 to 90% and the “PBMC DC90” value is on record as “D (D represents a DC90 value ≥50 nM)”.

For orientation: DC50 means the midpoint of the concentration-degradation curve. Low values mean a more potent degrader, high ones a less potent degrader. Broadly, the Dmax is the largest share of the target that was removed.

For the origin of these results see patent US20230099344A1, “COMPOUNDS AND METHODS FOR THE TARGETED DEGRADATION OF IRAK-4” (Arvinas Operations, Inc., priority 2021, published 2023).
